# According to EP1148124A1 (priority 1999, dated 2000):
# Like-named read-outs stand apart in the source and are kept apart here.
# Columns and labels:
# [1] = Reporter assay (No. 2), cell number reporter gene (sea pansy luciferase, pRL-TK), clone of Example 3; assay type: cell-based; settings: mouse, hepa1c1c7 cells
# Experimental: For the measured values of the amount of expression of the cell number reporter gene, a ratio is determined of the measured value in the test substance added group to the measured value in the only solvent added group (control group). When the ratio is, for example, in the range of 0.8 to 1.2, the measured value of the amount of expression of the ligand responsive reporter gene in the test substance added group is selected for evaluating the agonist or antagonist activity of the test substance against the ability of a ligand responsive transcriptional regulatory factor to promote transcription. When the ratio takes a small value such as smaller than 0.8, for example, it is possible that the test substance has cytotoxicity. In contrast, when the ratio takes a large value such as greater than 1.2, for example, it is possible that the test substance has activity against the transcriptional regulatory system of a gene without mediation of a ligand responsive transcriptional regulatory factor. However, the range of this ratio suitable for selecting the measured value of the amount of expression of the […] reporter gene may vary depending on certain properties of the present cells used and the conditions of measurement, and it is not limited to the above examples of numerical values.
# Separately, the ligand responsive reporter gene containing plasmid pGV-Ya-XREx5 constructed in Example 1 was digested with Bam HI. Further, the cell number reporter gene containing plasmid pRL-TK (marketed by Toyo Ink) was digested with Bam HI, and the neomycin resistance (aminoglycoside phosphotransferase) gene containing plasmid pRc/RSV (available from INVITROGEN) was digested with Hind III. These three digested plasmids, i.e., Bam HI digested pGV-Ya-XREx5 (5.6 µg), Bam HI digested pRL-TK (5.6 µg), and Hind III digested pRc/RSV (1 µg), were mixed with 600 µl of αMEM medium (mixture C), while 72 µl of lipofectin (available from GIBCO-BRL) was mixed with 600 µl of αMEM medium (mixture D). After being left at room temperature for 30 minutes, mixtures C and D were combined together and left at room temperature for 10 minutes. After the Hepalclc7 cells cultured overnight as described above were then washed once with αMEM medium, there was added a half volume of a solution prepared by adding and mixing additional 10.8 ml of αMEM medium into the above mixture (C + D). Culturing of the resulting mixture was carried out for 5 hours. The medium was then replaced with 10% serum containing αMEM medium, followed by further culturing for 2 days. Subsequently, the cells were scratched from the petri dishes and collected, and the collected cells were suspended in 10% serum containing αMEM medium to have the total volume of 100 ml. The resulting cell suspension was plated on 96-well plates at a ratio of 100 µl/well. After these plates were cultured overnight, a medium prepared by dissolving G418 in 10% serum containing αMEM medium to have a concentration of 3.2 mg/ml was added at a ratio of 100 µl/well (G418 final concentration 1.6 mg/ml). Culturing was further continued, during which the medium was replaced with 10% serum containing αMEM medium containing 800 µg/ml G418 at a rate of once per 4 to 5 days. The volume of the medium was set at 200 µl/well. […] To the first plate, only DMSO was added (solvent control), and to the second plate, 3-MC dissolved in DMSO was added so that the final concentration of 3-MC in the second plate came to 2 µm per well. The first and second plates were then cultured overnight. In this case, the DMSO or the solution of 3-MC in DMSO was added so that the final concentration of DMSO in each well came to 0.04%. The third plate was further cultured as the master plate. From each well of each plate, to which DMSO or 3-MC had been added, the medium was removed, and the wells were washed twice with PBS(-). […]
# Ah receptor = assay: Reporter assay (No. 2), ligand responsive reporter gene (firefly luciferase, pGV-Ya-XREx5), clone of Example 3; assay type: cell-based, mouse
# [2] = system: aryl hydrocarbon receptor; assay: Luciferase assay for clone selection (Example 2), firefly luciferase ligand responsive reporter gene
# [3] = final conc. 1 nM, about 6 hours
# [4] = final conc. 10 nM, about 6 hours
# [5] = final conc. 100 nM, about 6 hours
# [6] = final conc. 1000 nM, about 6 hours
# [7] = final conc. 10000 nM, about 6 hours
# [8] = final conc. 50000 nM, about 6 hours
smiles,measurement,setting,value
"C[C@@H]1C[C@H]2[C@@H]3CCC4=CC(=O)C=C[C@]4(C)[C@@]3(F)[C@@H](O)C[C@]2(C)[C@@]1(O)C(=O)CO [Dexamethasone, dexamethasone]","viability at 6 h, 0.001 µM",[1],100%
same,"viability at 6 h, 0.01 µM",[1],100%
same,"viability at 6 h, 0.1 µM",[1],90%
same,"viability at 6 h, 1 µM",[1],80%
same,"viability at 6 h, 10 µM",[1],100%
same,"viability at 6 h, 50 µM",[1],110%
same,Amount of luminescence by firefly luciferase (from pGV-Ya-XREx5) Measured value,Ah receptor; [3],3.71 x 10^2
same,Amount of luminescence by firefly luciferase (from pGV-Ya-XREx5) Measured value,Ah receptor; [4],3.54 x 10^2
same,Amount of luminescence by firefly luciferase (from pGV-Ya-XREx5) Measured value,Ah receptor; [5],3.39 x 10^2
same,Amount of luminescence by firefly luciferase (from pGV-Ya-XREx5) Measured value,Ah receptor; [6],3.22 x 10^2
same,Amount of luminescence by firefly luciferase (from pGV-Ya-XREx5) Measured value,Ah receptor; [7],3.53 x 10^2
same,Amount of luminescence by firefly luciferase (from pGV-Ya-XREx5) Measured value,Ah receptor; [8],3.73 x 10^2
same,Amount of luminescence by firefly luciferase (from pGV-Ya-XREx5) Ratio,"Ah receptor; hepa1c1c7 cells, 6 h, 0.001 µM",1.3
same,Amount of luminescence by firefly luciferase (from pGV-Ya-XREx5) Ratio,"Ah receptor; hepa1c1c7 cells, 6 h, 0.01 µM",1.2
same,Amount of luminescence by firefly luciferase (from pGV-Ya-XREx5) Ratio,"Ah receptor; hepa1c1c7 cells, 6 h, 0.1 µM",1.2
same,Amount of luminescence by firefly luciferase (from pGV-Ya-XREx5) Ratio,"Ah receptor; hepa1c1c7 cells, 6 h, 1 µM",1.1
same,Amount of luminescence by firefly luciferase (from pGV-Ya-XREx5) Ratio,"Ah receptor; hepa1c1c7 cells, 6 h, 10 µM",1.2
same,Amount of luminescence by firefly luciferase (from pGV-Ya-XREx5) Ratio,"Ah receptor; hepa1c1c7 cells, 6 h, 50 µM",1.3
"c1ccc2c(c1)cc1ccc3cccc4ccc2c1c34 [Benzo[a]pyrene, benzo[a]pyrene]","viability at 6 h, 0.001 µM","[1]; final conc. 1 nM, about 6 hours, ratio to 0 nM, read-out: Amount of luminescence by sea pansy luciferase (from pRL-TK) Ratio",90%
same,"viability at 6 h, 0.01 µM","[1]; final conc. 10 nM, about 6 hours, ratio to 0 nM, read-out: Amount of luminescence by sea pansy luciferase (from pRL-TK) Ratio",90%
same,"viability at 6 h, 0.1 µM","[1]; final conc. 100 nM, about 6 hours, ratio to 0 nM, read-out: Amount of luminescence by sea pansy luciferase (from pRL-TK) Ratio",80%
same,"viability at 6 h, 1 µM","[1]; final conc. 1000 nM, about 6 hours, ratio to 0 nM, read-out: Amount of luminescence by sea pansy luciferase (from pRL-TK) Ratio",90%
same,"viability at 6 h, 10 µM","[1]; final conc. 10000 nM, about 6 hours, ratio to 0 nM, read-out: Amount of luminescence by sea pansy luciferase (from pRL-TK) Ratio",80%
same,"viability at 6 h, 50 µM","[1]; final conc. 50000 nM, about 6 hours, ratio to 0 nM, read-out: Amount of luminescence by sea pansy luciferase (from pRL-TK) Ratio",80%
same,Amount of luminescence by firefly luciferase (from pGV-Ya-XREx5) Measured value,Ah receptor; [3],0.414 x 10^2
same,Amount of luminescence by firefly luciferase (from pGV-Ya-XREx5) Ratio,"Ah receptor; final conc. 1 nM, about 6 hours, ratio to 0 nM",1.7
same,Amount of luminescence by firefly luciferase (from pGV-Ya-XREx5) Measured value,Ah receptor; [4],0.928 x 10^2
same,Amount of luminescence by firefly luciferase (from pGV-Ya-XREx5) Ratio,"Ah receptor; final conc. 10 nM, about 6 hours, ratio to 0 nM",3.7
same,Amount of luminescence by firefly luciferase (from pGV-Ya-XREx5) Measured value,Ah receptor; [5],1.72 x 10^2
same,Amount of luminescence by firefly luciferase (from pGV-Ya-XREx5) Ratio,"Ah receptor; final conc. 100 nM, about 6 hours, ratio to 0 nM",6.9
same,Amount of luminescence by firefly luciferase (from pGV-Ya-XREx5) Measured value,Ah receptor; [6],3.12 x 10^2
same,Amount of luminescence by firefly luciferase (from pGV-Ya-XREx5) Ratio,"Ah receptor; final conc. 1000 nM, about 6 hours, ratio to 0 nM",12
same,Amount of luminescence by firefly luciferase (from pGV-Ya-XREx5) Measured value,Ah receptor; [7],4.54 x 10^2
same,Amount of luminescence by firefly luciferase (from pGV-Ya-XREx5) Ratio,"Ah receptor; final conc. 10000 nM, about 6 hours, ratio to 0 nM",18
same,Amount of luminescence by firefly luciferase (from pGV-Ya-XREx5) Measured value,Ah receptor; [8],5.76 x 10^2
same,Amount of luminescence by firefly luciferase (from pGV-Ya-XREx5) Ratio,"Ah receptor; final conc. 50000 nM, about 6 hours, ratio to 0 nM",23
"Cc1ccc2cc3c(ccc4ccccc43)c3c2c1CC3 [3-MC, 3-methylcholanthrene]",increase in the expression of the firefly luciferase gene by the addition of 3-MC,[2],about 10 times
